Measured values published in patent US20110082087A1, “COMPOUNDS FOR TREATING PAIN” (Edificio ICAT, priority 2008, published 2011).

Key:
rats (Wister, male) [1] = test: Histological alterations in liver, kidney and spleen; assay type: in vivo, rat; conditions: hematoxylin/eosin; 3.23 mg/100 g i.p. seven days
Description: The toxicological studies were carried out with rats (Wister, male) injected i.p. once a day with 3.23 mg/100 g body mass during seven days.
For investigation of histological alterations in liver, kidney and spleen hematoxylin/eosin-stained sections of fixed tissue were used.

[2] = Acrylamide quenching studies (aggregation in aqueous medium); assay type: physicochemical; conditions: acrylamide quenching of tyrosine fluorescence
Description: The aggregation of molecules in aqueous medium, as a result of poor solubility, for example, is a critical parameter in pharmacology. […] For this purpose, acrylamide quenching studies were performed (Lakowicz J. R 1999. Principles of Fluorescence spectroscopy, Second Edition ed., Kluwer Academic/Plenum Publishers, New York; Coutinho A and Prieto M. 1993. Ribonuclease T1 and alcohol dehydrogenase fluorescence quenching by acrylamide: A laboratory experiment for undergraduate students J. Chem. Education, 70: 425-428). Acrylamide is an aqueous quencher of tyrosine fluorescence. When fluorescent peptides aggregate, the phenolic groups tend to cluster and remain inaccessible to hydrophilic molecules. Conversely, when no aggregation occurs, all tyrosine residues are exposed to the solvent and, therefore, accessible to the contact and quenching by acrilamide. […] The fluorescence spectra were not concentration-dependent (not shown) and there was a linear dependence of fluorescence intensity on concentration (not shown).

rats [3] = test: Comparison with morphine, behavioural nociception tests and behaviour observation; assay type: in vivo, rat; conditions: i.p.
Description: (§1) In vivo behavioural anti-nociception tests were carried out in rats (Wister, male). Unless otherwise stated, compounds were administered by intra-peritoneal (i.p.) injection. For most assays, the Tail Flick and the Hot Plate tests were used.
The analgesic potential of KTP-NH2 was also verified by comparison with well-known, widely-used analgesic molecules: ibuprofen and morphine.
From FIG. 12 it is possible to observe that the efficacy of 3 mg/100 g of KTP-NH2 is similar to that observed with 0.5 mg/100 g dose of morphine.

[4] = Metabolic stability in human liver microsomal preparation; assay type: in vitro ADME; conditions: liver microsomes; 1-hour incubation with human liver microsomal preparation; read-out: compound remained
Source text: Many compounds can never become a drug because they are rapidly metabolized in the liver. It is important to confirm that metabolic stability is adequate to the desired distribution of compound throughout the body.

rats (Wister, male) [5] = test: Tail Flick test; assay type: in vivo, rat
Description: as §1
The tail-flick test (D'Amour F. E., Smith D. L. 1941. A method for determining the loss of pain sensation. J Pharmacol Exp Ther 1941; 72:74-79) is a standard investigative tool for pain and analgesia assessment in rodents. It is based on a spinal reflex response of the tail to radiant heat. Pain sensitivity in rats was measured as they responded to the application of radiant heat to a small area of their tails. The rat's tail was placed over a window located on a platform and subjected to irradiation by an intense light beam (10 W). When the rat feels discomfort, it flicks its tail which automatically stops the timer. The reaction time from activation of the light beam to the tail flick is automatically presented on a digital display. A cut-off time of 24 s was applied. Animal reaction time is a measurement of animal resistance to pain and is used to measure efficacy of analgesics.

[6] = Plasma serum stability of analogues; assay type: in vitro ADME; conditions: Human Serum; test concentration 400 uM; 1-hour incubation; read-out: Mean Parent Remaining (%)
Description: These analogues were tested for plasma serum stability, in comparison with KTP-NH2.

rats [7] = test: Formalin test (paw jerks); assay type: in vivo, rat; conditions: acute and tonic-chronic phases; i.p. 10 min before 5% formalin s.c.
Source text: The formalin test was introduced as a model of tonic pain in 1977 (Dubuisson D., Dennis S. G. 1977. The formalin test: a quantitative study of the analgesic effect of morphine, meperidine and brain stem stimulation in rats and cats. Pain; 4:74-161). In rats, formalin generates an initial phase of activity (phase 1, acute), a quiescent interphase, and a second phase of activity (phase 2, tonic/chronic), and this is seen with spontaneous behaviors, firing of afferent neurons, and activity in dorsal horn neurons. Both active phases involve ongoing peripheral afferent neural activity; inflammation contributes to phase 2 activity and the interphase results from active inhibition. Within the spinal cord, formalin increases c-fos expression in neurons and causes activation of microglia, and these may contribute more prominently to longer term changes.
We performed the formalin test due to its validity as a model to study central sensitization events at the spinal level after peripheral inflammatory states. The standard two types of nociception were analyzed; the short-lasting nociception caused by a direct effect on nociceptors followed by a long-lasting nociception due to inflammation. KTP-NH2 was administered i.p. 10 min previous to formalin injection. […] The paw jerks were videotaped and measured both in the acute and in the tonic-chronic phases. […]

[8] = Differential quenching, depth of location in the membrane; assay type: physicochemical; conditions: phenolic ring; differential quenching with 5-NS and 16-NS
Source text: Differential quenching experiments were used to estimate the depth of location of the phenolic ring of the peptides, based on a Brownian dynamics simulation (Fernandes M. X., Garcia de la Torre J., Castanho M. A. 2002. Joint determination by Brownian dynamics and fluorescence quenching of the in-depth location profile of biomolecules in membranes. Anal. Biochem. 307: 1-12.) This methodology allows to determine where the molecules are preferably inserted along the lipid bilayer. The peptides with the amide group show a greater depth of insertion, 4 Å—KTP-NH2 and 3 Å—Ibu-KTP-NH2, from the lipid/water interface. This is in agreement with KTP-NH2 having a higher affinity for lipids, as desired.

Compound: N=C(N)NCCC[C@H](NC(=O)[C@@H](N)Cc1ccc(O)cc1)C(N)=O [KTP-NH2, L-Tyr-L-Arg-NH2]
- histological alterations in kidney and spleen (rats (Wister, male) [1]): no histological modifications
- histological alterations in liver (rats (Wister, male) [1]): no sign of hepatic necrosis
- aggregation / solubility in aqueous medium [2]: favourable solubility properties
- analgesic efficacy compared with morphine (rats [3]; 3 mg/100 g KTP-NH2 vs 0.5 mg/100 g morphine): similar
- alterations in behavior (secondary effects) (rats [3]; rats): no such secondary effects were observed
- remaining at 1 h [4]: 93%
- response after chronic administration (rats (Wister, male) [5]; Tail Flick, 3.23 mg/100 g once a day for seven days vs single injection): very similar profile to the control
- analgesic effect compared with ibuprofen (rats (Wister, male) [5]; Tail Flick, i.p.): more durable effect
- duration of anti-nociceptive response (rats (Wister, male) [5]; Tail Flick, i.p., rat): 45 min
- smallest dose tested with statistical significance (rats (Wister, male) [5]; Tail Flick, i.p., rat): 2.45 mg for 100 g of body mass
- analgesic efficacy after oral administration (rats (Wister, male) [5]; Tail Flick, oral, rat): slight delay of the onset of effect
- effect on tail flick latency (rats (Wister, male) [5]; i.p., rat): clear anti-nociceptive response
- analgesia after pretreatment with naloxone (rats (Wister, male) [5]; tail-flick, naloxone 0.5 mg/100 g 10 min before, KTP-NH2 3 mg/100 g): completely antagonized
- remaining at 1 h, 400 uM [6]: 14%
- number of paw-jerks (rats [7]): reduced significantly
- depth of insertion from the lipid/water interface [8]: 4 Å
